Results: patent publication US20190152946A1, “Novel Compounds” (GlaxoSmithKline Intellectual Property Development Limited, priority 2016, published 2019)

Experiments:
Format in all cases: cell-based
BTK = molecular target: T1, BTK (Homo sapiens, UniProt Q06187); assay: Expression proteomics in THP-1 cells, BTK level; settings: BTK protein log2 fold change, 24 h, 1.0 μM
T1 construct: endogenous in cells; host or cells: THP-1
Method: (§1) THP-1 cells were seeded at a concentration of 3×10^6 cells in T175 flasks with 60 mL growth medium (RPM11640+10% FBS). […] of a 10× compound solution prepared in growth medium (DMSO), IAP PROTAC) was added and the cells were treated for the indicated time points (6 or 24 h) at 37° C., 5% CO2. For harvesting the cells were collected into falcon tubes on ice, centrifuged and washed twice in cold PBS (Life technologies). After the last washing step the supernatant was removed and the pellets were snap-frozen in liquid N2 and stored at −80° C. and lysed in 2% SDS for 3 min at 95° C. in a thermomixer (Thermo Fisher Scientific), followed by digestion of DNA with Benzonase at 37° C. for 1.5 h. Lysate was cleared by centrifugation an protein concentration in supernatant was determined by BCA assay.
(§2) Leukemia 25, 89-100 (2011).
(§3) Samples were dried in vacuo and resuspended in 0.05% trifluoroacetic acid in water. […]
(§4) Reporter ion intensities were read from raw data and multiplied with ion accumulation times (the unit is milliseconds) so as to yield a measure proportional to the number of ions;
(§5) Nat Biotech 29, 255-265 (2011). this measure is referred to as ion area Savitski, M. M. et al. Delayed Fragmentation and Optimized Isolation Width Settings for Improvement of Protein Identification and Accuracy of Isobaric Mass Tag Quantification on Orbitrap-Type Mass Spectrometers. […]

AKT2 = molecular target: T2, AKT2 (Homo sapiens, UniProt P31751); assay: Expression proteomics in THP-1 cells, AKT2 level; settings: AKT2 protein log2 fold change, 24 h, 1.0 μM
T2 construct: endogenous in cells; host or cells: THP-1
Method: as §1, §2, §3, §4, §5

TEC = molecular target: T3, TEC (Homo sapiens, UniProt P42680); assay: Expression proteomics in THP-1 cells, TEC level; settings: TEC protein log2 fold change, 24 h, 1.0 μM
T3 construct: endogenous in cells; host or cells: THP-1
T3 sequence (P42680 1-631): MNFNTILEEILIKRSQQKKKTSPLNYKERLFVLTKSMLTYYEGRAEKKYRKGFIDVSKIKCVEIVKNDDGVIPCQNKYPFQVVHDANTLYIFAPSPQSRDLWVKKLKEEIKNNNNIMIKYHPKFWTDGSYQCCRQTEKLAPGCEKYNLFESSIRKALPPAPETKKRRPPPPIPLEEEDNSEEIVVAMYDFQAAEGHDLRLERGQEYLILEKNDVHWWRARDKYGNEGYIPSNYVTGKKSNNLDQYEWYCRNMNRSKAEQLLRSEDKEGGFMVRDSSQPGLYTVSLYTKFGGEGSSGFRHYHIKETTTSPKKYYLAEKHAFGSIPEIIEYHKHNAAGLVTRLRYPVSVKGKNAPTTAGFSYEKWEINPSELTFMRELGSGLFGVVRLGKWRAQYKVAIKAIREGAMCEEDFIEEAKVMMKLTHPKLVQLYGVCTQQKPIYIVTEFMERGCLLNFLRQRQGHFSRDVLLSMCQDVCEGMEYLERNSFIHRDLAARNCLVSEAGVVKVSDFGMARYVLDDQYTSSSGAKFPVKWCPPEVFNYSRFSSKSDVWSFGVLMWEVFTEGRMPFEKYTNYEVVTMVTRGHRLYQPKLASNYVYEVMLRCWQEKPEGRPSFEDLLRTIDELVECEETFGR
Method: as §1, §2, §3, §4, §5

MAPK9 = molecular target: T4, MAPK9 (Homo sapiens, UniProt P45984); assay: Expression proteomics in THP-1 cells, MAPK9 level; settings: MAPK9 protein log2 fold change, 24 h, 1.0 μM
T4 construct: endogenous in cells; host or cells: THP-1
Method: as §1, §2, §3, §4, §5

T4 sequence (P45984 whole entry): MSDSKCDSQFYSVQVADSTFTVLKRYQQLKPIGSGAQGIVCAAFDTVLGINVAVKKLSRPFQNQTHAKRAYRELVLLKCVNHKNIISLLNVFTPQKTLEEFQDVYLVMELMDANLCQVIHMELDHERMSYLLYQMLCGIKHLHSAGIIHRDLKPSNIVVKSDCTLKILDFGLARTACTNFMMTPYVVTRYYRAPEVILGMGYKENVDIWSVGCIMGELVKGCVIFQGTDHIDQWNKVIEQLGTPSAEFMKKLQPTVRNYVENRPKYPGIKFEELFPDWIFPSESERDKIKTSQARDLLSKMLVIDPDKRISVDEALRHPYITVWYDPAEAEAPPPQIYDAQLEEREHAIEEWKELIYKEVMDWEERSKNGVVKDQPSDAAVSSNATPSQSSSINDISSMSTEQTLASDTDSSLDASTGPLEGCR
T1 sequence (Q06187 whole entry): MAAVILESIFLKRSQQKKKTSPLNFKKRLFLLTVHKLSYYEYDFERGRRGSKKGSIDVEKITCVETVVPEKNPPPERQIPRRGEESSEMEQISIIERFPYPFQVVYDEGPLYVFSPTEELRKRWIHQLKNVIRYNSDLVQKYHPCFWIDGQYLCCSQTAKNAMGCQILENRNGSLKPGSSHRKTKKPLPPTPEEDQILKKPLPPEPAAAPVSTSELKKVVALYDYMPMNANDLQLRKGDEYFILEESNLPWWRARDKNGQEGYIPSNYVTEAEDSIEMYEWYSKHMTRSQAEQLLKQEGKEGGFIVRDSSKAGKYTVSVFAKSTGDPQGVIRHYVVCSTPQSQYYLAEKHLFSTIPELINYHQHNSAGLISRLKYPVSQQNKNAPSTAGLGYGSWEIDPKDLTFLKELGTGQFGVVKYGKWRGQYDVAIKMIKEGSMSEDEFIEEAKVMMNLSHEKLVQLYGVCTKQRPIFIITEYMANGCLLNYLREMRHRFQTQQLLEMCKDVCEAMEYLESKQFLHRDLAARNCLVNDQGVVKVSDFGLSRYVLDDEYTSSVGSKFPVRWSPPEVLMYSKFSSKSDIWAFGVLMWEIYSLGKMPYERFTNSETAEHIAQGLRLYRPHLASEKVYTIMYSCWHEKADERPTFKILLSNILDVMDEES
T2 sequence (P31751 whole entry): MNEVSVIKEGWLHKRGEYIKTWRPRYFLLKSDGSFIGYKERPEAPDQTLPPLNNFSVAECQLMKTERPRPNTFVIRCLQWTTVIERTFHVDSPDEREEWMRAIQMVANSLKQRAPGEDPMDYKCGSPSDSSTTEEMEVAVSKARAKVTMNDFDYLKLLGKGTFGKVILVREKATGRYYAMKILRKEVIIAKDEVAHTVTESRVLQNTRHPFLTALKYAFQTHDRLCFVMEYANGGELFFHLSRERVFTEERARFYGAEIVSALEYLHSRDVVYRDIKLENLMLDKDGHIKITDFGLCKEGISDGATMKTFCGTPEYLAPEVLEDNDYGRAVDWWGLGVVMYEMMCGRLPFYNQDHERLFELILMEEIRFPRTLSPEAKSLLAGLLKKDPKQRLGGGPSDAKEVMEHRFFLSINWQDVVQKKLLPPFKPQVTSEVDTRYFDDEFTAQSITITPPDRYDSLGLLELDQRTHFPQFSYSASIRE

In the case of `CNC(=O)c1ccccc1Nc1nc(Nc2ccc(N3CCN(CCOCCOCCOCCOc4ccc5c(c4)CN(C(=O)[C@@H](NC(=O)[C@H](C)NC)C(C)(C)C)[C@H](C(=O)N[C@@H]4CCCc6ccccc64)C5)CC3)cc2)ncc1Cl` [IAP, (S)-7-(2-(2-(2-(2-(4-(4-((5-Chloro-4-((2-(methylcarbamoyl)phenyl)amino)pyrimidin-2-yl)amino)phenyl)piperazin-1-yl)ethoxy)ethoxy)ethoxy)ethoxy)-2-((S)-3,3-dimethyl-2-((S)-2-(methylamino)propanamido)butanoyl)-N-((R)-1,2,3,4-tetrahydronaphthalen-1-yl)-1,2,3,4-tetrahydroisoquinoline-3-carboxamide], the “log2fc_IAP_24 h_1.0 μM_n1” value (BTK; replicate n1) is reported as −1.53, the “log2fc_IAP_24 h_1.0 μM_n2” value (BTK; replicate n2) is reported as −1.66 and the “log2fc_IAP_24 h_1.0 μM_n1” value (AKT2; replicate n1) is reported as −1.01. The “log2fc_IAP_24 h_1.0 μM_n2” value (AKT2; replicate n2) was −0.89, the “log2fc_IAP_24 h_1.0 μM_n1” value (TEC; replicate n1) was −1.79 and the “log2fc_IAP_24 h_1.0 μM_n2” value (TEC; replicate n2) was −2.04. For the same compound, the “log2fc_IAP_24 h_1.0 μM_n1” value (MAPK9; replicate n1) was −1.22 and the “log2fc_IAP_24 h_1.0 μM_n2” value (MAPK9; replicate n2) was −1.31.
